In patent US10214514B2, “Hedgehog antagonists having zinc binding moieties” (Curis, Inc., priority 2011, dated 2019) one finds IC50 and melting point data, which are given here for 15 compounds.

“And” between values parts separate entries of the source, which are not always exact repeats. Identical values can stand only once.

Series [1] deals with HDACs (HeLa cell nuclear extracts). As to the kind of experiment: HDAC enzymatic activity inhibition assay (Biomol Color de Lys system). It is filed as biochemical. Conditions: class symbols. As to the method: HDAC inhibitory activity was assessed using the Biomol Color de Lys system (AK-500, Biomol, Plymouth Meeting, Pa.). Briefly, HeLa cell nuclear extracts were used as a source of HDACs. Different concentrations of test compounds were serially diluted in dimethylsulfoxide (DMSO) and added to HeLa cell nuclear extracts in the presence of a colorimetric artificial substrate. […] Reactions were carried out at room temperature (25° C.) for 1 hour before addition of developer for termination. […] Data were analyzed using GraphPad Prism (v4.0a) with a sigmoidal dose response curve fitting for IC50 calculation.

The test system of series [2] is Hedgehog pathway signaling (Gli-Luc response, OCT-SHH activated 10 Tl/2 (s12) cells). As to the kind of experiment: Hedgehog signalling inhibition, Gli-Luc reporter assay (Hh Reporter assay). Format: cell-based. The method, then:
Example 17: An In Vitro Assay which Determines the Ability of a Test Compound to Inhibit Hedgehog Signalling
Compounds to be tested were dissolved in DMSO to a concentration of 10 mM, and stored at −20° C. To activate the Hedgehog pathway in the assay cells, an octylated (lipid-modified) form of the N-terminal fragment of the Sonic Hedgehog protein (OCT-SHH) was used. This N-terminal SHH fragment is produced bacterially. See, for example, Taylor F R, et al., Biochemistry, 2001, 40: 4359-71.
Compounds were tested in the“Gli-Luc” assay below, using the cell line 10 Tl/2 (s12), wherein the cells contain a Hedgehog-responsive reporter construct utilizing Luciferase as the reporter gene. In this way, Hedgehog pathway signaling activity is measured via the Gli-Luc response.
10 Tl/2 (s12) cells were plated in a 96-well micro-titer plate (MTP) at 20,000 cells/well in full medium [DMEM with 10% FBS]. Then plates were placed in the incubator for incubation overnight (0/N), at 37° C. and 5% CO2. After 24 h, the medium was replaced with Luciferase-assay medium (DMEM with 0.5% FBS). Test compounds were thawed and diluted in assay medium at 3:1000 (about 300-fold) resulting in a starting concentration of about 0.0003 uM to 30 uM. Subsequently, 150 ul of each sample was added to the first wells (in triplicate). The MTP samples were then diluted at 3-fold dilutions to a total of seven wells, ultimately resulting in a regiment of seven dilutions in triplicate, for each compound. Next, the protein ligand OCT-SHH was diluted in Luciferase-assay medium and added to each well at a final concentration of 0.3 μg/ml. Plates were then returned to the incubator for further incubation O/N, at 37° C. and 5% CO2. After about 24 h, plates were removed from the incubator and the medium was aspirated/discarded.
Wells were washed once with assay buffer [PBS+1 mM Mg^2+ and 1 mM Ca^2+]. Then 50 μl of assay buffer was added to each well. The Luciferase assay reagent was prepared as described by the vendor (LucLite kit from Packard), and 50 μl was added to each well. Plates were incubated at room temperature (RT) for about 30 minutes after which the signals were read, again at RT, on a Topcount (Packard). […]
Background: Reporter assays use an easily measured gene product as a stand-in for the process of interest.

The mark [3] stands for this setting: S12, Gli-Luc reporter, class symbols.

The term IC50 denotes the concentration needed to halve the response being measured. The term melting point denotes the temperature, or range, at which the solid turns liquid. Compound `O=C(NO)c1cnc(N2CCC(CNS(=O)(=O)c3ccc(C(=O)Nc4ccc(Cl)c(-c5ccccn5)c4)c(Cl)c3)CC2)nc1` [Compound 90, 2-(4-((3-Chloro-4-(4-chloro-3-(pyridin-2-yl)phenylcarbamoyl)phenylsulfonamido)methyl)piperidin-1-yl)-N-hydroxypyrimidine-5-carboxamide] displayed a melting point of 172 to 173 °C. The compound also returned an IC50 in series [1] of 10 to 100 nM. For the same compound, the IC50 in series [2] (setting [3]) lay in the range of 1 to 10 nM.
In turn, `O=C(NO)c1cnc(NS(=O)(=O)c2ccc(C(=O)Nc3ccc(Cl)c(-c4ccccn4)c3)c(Cl)c2)nc1` [Compound 265, 2-(3-Chloro-4-(4-chloro-3-(pyridin-2-yl)phenylcarbamoyl)phenylsulfonamido)-N-hydroxypyrimidine-5-carboxamide] displayed an IC50 in series [1] greater than 1000 nM.
Regarding `Cc1nc(NCC2CCN(c3ncc(C(=O)NO)cn3)CC2)ccc1C(=O)Nc1ccc(Cl)c(-c2nc3ccccc3[nH]2)c1` [Compound 91, 2-(4-((5-(3-(1H-Benzo[d]imidazol-2-yl)-4-chlorophenylcarbamoyl)-6-methylpyridin-2-ylamino)methyl)piperidin-1-yl)-N-hydroxypyrimidine-5-carboxamide], the melting point was 194 to 196 °C. The compound further displayed an IC50 in series [1] of 10 to 100 nM. The compound further showed an IC50 in series [2] (setting [3]) of 10 to 100 nM.
On to `CS(=O)(=O)c1ccc(C(=O)Nc2ccc(Cl)c(-c3ccc(C(=O)NO)cn3)c2)c(Cl)c1` [Compound 5, 6-(2-Chloro-5-(2-chloro-4-(methylsulfonyl)benzamido)phenyl)-N-hydroxynicotinamide], for which the concentration for half-maximal inhibition (IC50) in series [1] and in series [2] (setting [3]) was 100 to 1000 nM throughout.
Consider `O=C(NO)c1ccc(OCCNS(=O)(=O)c2ccc(C(=O)Nc3ccc(Cl)c(-c4ccccn4)c3)c(Cl)c2)cc1` [Compound 266, 2-Chloro-N-(4-chloro-3-(pyridin-2-yl)phenyl)-4-(N-(2-(4-(hydroxycarbamoyl)phenoxy)ethyl)sulfamoyl)benzamide], for which the melting point lay in the range of 138 to 139 °C. For the same compound, the IC50 in series [1] fell in the range of 100 to 1000 nM. In series [2] (setting [3]), this compound displayed an IC50 of 1 to 10 nM.
Regarding `CS(=O)(=O)c1ccc(C(=O)Nc2ccc(Cl)c(-c3ccc(OCCCCCCC(=O)NO)cn3)c2)c(Cl)c1` [Compound 23, 2-Chloro-N-{4-chloro-3-[5-(6-hydroxycarbamoyl-hexyloxy)-pyridin-2-yl]-phenyl}-4-methanesulfonyl-benzamide], the melting point was 140 to 145 °C. The compound further gave an IC50 in series [1] of 10 to 100 nM. In series [2] (setting [3]), this compound displayed an IC50 of 100 to 1000 nM.
Take `COc1cc(CNc2ncc(C(=O)NO)cn2)cc(C(=O)Nc2ccc(Cl)c(-c3nc4cc(N(C)C)ccc4[nH]3)c2)c1` [Compound 258, 2-(3-(4-Chloro-3-(5-(dimethylamino)-1H-benzo[d]imidazol-2-yl)phenylcarbamoyl)-5-methoxybenzylamino)-N-hydroxypyrimidine-5-carboxamide]: the melting point was 158 to 159 °C. Besides, the IC50 in series [1] was in the range of 10 to 100 nM. For the same compound, the IC50 in series [2] (setting [3]) is 10 to 100 nM.
Turning to `CN(Cc1ccc(C(=O)Nc2ccc(Cl)c(-c3ccccn3)c2)c(Cl)c1)c1ncc(C(=O)NO)cn1` [Compound 263, 2-((3-Chloro-4-(4-chloro-3-(pyridin-2-yl)phenylcarbamoyl)benzyl) (methyl)amino)-N-hydroxypyrimidine-5-carboxamide], the IC50 in series [1] fell in the range of 10 to 100 nM; in series [2] (setting [3]), 100 to 1000 nM.
`COc1cc(CN(C)c2ncc(C(=O)NO)cn2)cc(C(=O)Nc2ccc(Cl)c(-c3nc4cc(N(C)C)ccc4[nH]3)c2)c1` [Compound 259, 2-((3-(4-Chloro-3-(5-(dimethylamino)-1H-benzo[d]imidazol-2-yl)phenylcarbamoyl)-5-methoxybenzyl)(methyl)amino)-N-hydroxypyrimidine-5-carboxamide]: the IC50 in series [1] and in series [2] (setting [3]) was 10 to 100 nM each time.
Take `CS(=O)(=O)c1ccc(C(=O)Nc2ccc(Cl)c(-c3ccc(/C=C/C(=O)NO)cn3)c2)c(Cl)c1` [Compound 1, (E)-2-chloro-N-(4-chloro-3-(5-(3-(hydroxyamino)-3-oxoprop-1-enyl)pyridin-2-yl)phenyl)-4-(methylsulfonyl)benzamide]: the half-inhibitory concentration (IC50) in series [1] and in series [2] (setting [3]) was 100 to 1000 nM in each case.
With `O=C(/C=C/c1cccc(NS(=O)(=O)c2ccc(C(=O)Nc3ccc(Cl)c(-c4ccccn4)c3)c(Cl)c2)c1)NO` [Compound 254, (E)-2-Chloro-N-(4-chloro-3-(pyridin-2-yl)phenyl)-4-(N-(3-(3-(hydroxyamino)-3-oxoprop-1-enyl)phenyl)sulfamoyl)benzamide], the IC50 in series [1] lay in the range of 100 to 1000 nM; in series [2] (setting [3]), 10 to 100 nM.
Consider `COc1cc(OC)cc(C(=O)Nc2ccc(Cl)c(-c3nc4ccc(N(C)C)cc4[nH]3)c2)c1` [Compound A, reference compound], for which the IC50 in series [2] (Gli-Luc reporter, numeric values for reference compounds) is 24 nM and 13.1 nM; in series [2] (S12, Gli-Luc reporter, numeric values for reference compounds), 17 nM.
On to `CN(C)c1ccc2[nH]c(-c3cc(NC(=O)c4cccc(OCCCCCCC(=O)NO)c4)ccc3Cl)nc2c1` [Compound 111, N-(4-Chloro-3-(5-(dimethylamino)-1H-benzo[d]imidazol-2-yl)phenyl)-3-(7-(hydroxyamino)-7-oxoheptyloxy)benzamide], for which the IC50 fell in the range of 10 to 100 nM in series [1] and 100 to 1000 nM in series [2] (setting [3]).
For the compound `CS(=O)(=O)c1ccc(C(=O)Nc2ccc(Cl)c(-c3ncc(C(=O)NO)cn3)c2)c(Cl)c1` [Compound 7, 2-[2-Chloro-5-(2-chloro-4-methanesulfonyl-benzoylamino)-phenyl]-pyrimidine-5-carboxylic acid hydroxyamide], the IC50 in series [1] is 100 to 1000 nM; in series [2] (setting [3]), greater than 1000 nM.
The corresponding values for `O=C(CCCCCCNS(=O)(=O)c1ccc(C(=O)Nc2ccc(Cl)c(-c3ccccn3)c2)c(Cl)c1)NO` [Compound 59, 2-Chloro-N-(4-chloro-3-(pyridin-2-yl)phenyl)-4-(N-(7-(hydroxyamino)-7-oxoheptyl)sulfamoyl)benzamide] are 100 to 1000 nM and 10 to 100 nM.
